Assay results taken from patent US8268801B2 (priority 2007, dated 2012).

Tested on: T cell clone Z4B27
Test: Antigen presentation assay: IFN-γ release by T cell clone Z4B27
Format: cell-based
Details: CD1+ APC preincubated 2 h with sonicated antigen 1-10 μg/mL, 36 h, ELISA; FIG. 1; compared with unsulfated compound f and saturated comparative compound
Protocol: The release of IFN-γ produced by T cell clone Z4B27 prepared in accordance with the method disclosed in WO 2004/092192 in response to stimulation by the compounds of the invention was measured.
CD1+APC were preincubated at 5×10^4 cells/well for 2 h at 37° C. with sonicated antigen (1-10 μg/mL) before addition of T cells (5×10^4/well in triplicate). After 36 h released TNF-α and IFN-γ were measured using sandwich ELISA kits (Instrumentation Laboratory). Data are expressed as mean ng/mL or pg/mL±SD of triplicates. All experiments were repeated at least 2 times.

For `CCCCCCCCCCCCCCCCC(C)CC(C)CC(C)C=C(C)C(=O)OC1C(O)C(CO)OC(OC2OC(CO)C(O)C(O)C2OS(=O)(=O)O)C1OC(=O)CCCCCCCCCCCCCCC` [compound e, 2′-O-Sulfate-2-O-hexadecanoyl-3-O-[(4S,6S,8S)-2,4,6,8-tetramethyltetracos-2-enoyl]-α,α′-D-trehalose], the “IFN-γ produced by T cell clone Z4B27 in response to stimulation” value was “better activity”.
